The subject of assay [1] is C57BL/6J mouse with induced non-alcoholic steatohepatitis. In words: NAFLD activity score (NAS) before and after administration, C57BL/6J DIO-NASH mouse model. In kind it is in vivo. The settings on record: compound in special diet for eight weeks, FIG. 12. The protocol:
(§1) A six-week-old male C57BL/6J mouse was fed with a special diet comprising high fat, high fructose, and high cholesterol for at least 26 weeks, and thus was induced to develop non-alcoholic steatohepatitis. It was confirmed that fatty liver and inflammatory fibrosis are induced through a biopsy of liver tissues three weeks before drug supply, and mice were evenly distributed into each group based on the area of collagen stained in the liver tissues. A feed was prepared by mixing the compounds according to the present invention in a special diet and supplied for additional eight weeks. According to the diet supplied to the mice, each of the groups was classified as a control group fed with a normal diet (Normal), a positive control group in which mice with induced non-alcoholic steatohepatitis due to the special diet were not supplied with a drug (DIO-NASH), and a group in which mice with induced non-alcoholic steatohepatitis were supplied with the compound 1 in an amount of 30 mg/kg/day (L) and […] (H) (Cmpd1 (L) and Cmpd1 (H), respectively).

Assay [2] shares this test system. In words: Histological examination (HE) and triglyceride content of liver, C57BL/6J DIO-NASH mouse model. In kind it is in vivo. Particulars: Compd1 (H) group, in special diet for eight weeks after induction, vs. DIO-NASH, FIGS. 10 and 11. On the procedure:
as §1
For a histological examination, the prepared C57BL/6J mouse model was subjected to autopsy to fix an isolated liver tissue in 10% formalin and prepare a paraffin block, thereby obtaining a 2 μm-thick tissue section. […]

Assay [3] shares this test system. As to the kind of experiment: Evaluation of fibrosis (Sirius stain, type I collagen immunostaining), C57BL/6J DIO-NASH mouse model. The settings on record: C57BL/6J DIO-NASH_Compd1, compound in special diet for eight weeks, vs. DIO-NASH; FIGS. 13 and 14. In kind it is in vivo. The protocol: as §1
Then, for the evaluation of fibrosis, the fibers of the liver tissues were specifically stained with Sirius Res stain in the mice of each group, and a content of type I collagen in the liver tissues was measured by an imaging analysis method after immunostaining, so that the results thereof are shown in FIGS. 13 and 14.

Assay [4] concerns differentiated macrophages (THP-1). As to the kind of experiment: Effect on activation of differentiated macrophages by LPS (IL-1β secretion, ELISA). The format is cell-based, human. The settings on record: differentiated macrophages treated with compound for 48 hours, then LPS; FIG. 9. On the procedure:
(§2) Then, THP-1 monocytes were treated with PMA (50 ng/ml) for 48 hours to be differentiate into macrophages, while the compound 1 was co-treated, then replaced with serum-free medium, and then treated with lipopolysaccharides (LPS, 0.5 ng/ml) for four hours so as to quantity interleukin-1β (IL-1β, R&D Systems, DY201) secreted into the medium by using a commercialized ELISKA kit and evaluate an effect on the differentiation of monocytes, so that the results thereof are shown in FIG. 8.
In addition, after treating the differentiated macrophages with the compound 1 for 48 hours, the secreted IL-1β was quantified by the same method as above with regard to the activation of immune cells by LPS, so as to evaluate an effect on the activation of differentiated macrophages.

In assay [5] the test system is C57BL/6J mouse with induced non-alcoholic steatohepatitis. As to the kind of experiment: AST and ALT measurement in blood, C57BL/6J DIO-NASH mouse model. The format is in vivo. Particulars: C57BL/6J DIO-NASH_Compd1, compound in special diet for eight weeks, plasma, vs. DIO-NASH; FIG. 15. The protocol:
as §1
Each of the mouse groups was subjected to autopsy, after which plasma was separated therefrom, so as to quantity aspartate aminotransferase (AST) and alanine aminotransferase (ALT) by using an automatic blood analyzer (Konelab 20i).

For assay [6] the test system is unchanged. As to the kind of experiment: Change in gene expression in liver tissues (RNAseq), C57BL/6J DIO-NASH mouse model. The format is in vivo. Particulars: C57BL/6J DIO-NASH_Compd1, eight weeks after drug administration, vs. DIO-NASH, FIG. 16. On the procedure:
as §1
To analyze a change in total gene expression in liver tissues isolated from the above mouse model in eight weeks after drug administration, the isolated RNA fraction was used to generate a library by using NeoPrep (Illumina), and subjected to RNAseq profiling through NexSeq 500 (Illumina), after which bioinformatics analysis was performed and changes in major gene groups were classified for each function, so that the results thereof are shown in FIG. 16.

Assay [7] has as its system ob/ob mouse with induced non-alcoholic steatohepatitis. In words: Histological examination of liver (HE, Masson's Trichrome / Sirius stain) in ob/ob mouse model with induced non-alcoholic steatohepatitis. The format is in vivo. Particulars: 100 mg/kg/day mixed in special diet for 10 weeks, vs. Ob-NASH. On the procedure:
(§3) A six-week-old male ob/ob mouse with leptin deficiency was fed with a special diet containing high fat, high fructose, and high cholesterol for 10 weeks, and thus was induced to develop non-alcoholic steatohepatitis. A mixed form of diet was prepared so that a daily dose of (3-(4-(3-(1-(5-ethylpyrimidin-2-yl)piperidin-4-yl)propoxy)-2,6-difluorophenyl)-5-isopropyl-1,2,4-oxadiazole (hereinafter, “compound 1”) reaches 100 mg/kg/day in the compound represented by the chemical formula 1, and supplied to the mouse from a time point of starting the supply of the special diet for 10 weeks.
For a histological examination, the prepared mouse model with induced non-alcoholic steatohepatitis was subjected to autopsy to fix an isolated liver tissue in 10% formalin and prepare a paraffin block, thereby obtaining a 2 μm-thick tissue section. To confirm infiltration of inflammatory cells, Hematoxylin and Eosin (HE) stain was performed using an automatic staining machine (Autostainner XL, Leica), and the results thereof are shown in FIGS. 1 and 2.
Then, for evaluation of fibrosis, fibers in liver tissue were specifically stained by using Masson's Trichrome stain or Sirius Res stain, and the results thereof are shown in FIGS. 2 and 3.

Another assay concerns human monocytes (THP-1). As to the kind of experiment: Effect on differentiation of human monocytes into macrophages (IL-1β secretion, ELISA). The format is cell-based. Particulars: THP-1 co-treated with compound during PMA (50 ng/ml) differentiation for 48 hours, then LPS (0.5 ng/ml) for four hours; FIG. 8. The protocol:
as §2
In general terms: In an ELISA, binding on a coated surface is turned into a signal by an enzyme label.

Assay [8] concerns ob/ob mouse with induced non-alcoholic steatohepatitis. As to the kind of experiment: Concentration of proteins associated with inflammation and fibrosis in liver tissues (ELISA), ob/ob NASH mouse model. The format is in vivo. The settings on record: 100 mg/kg/day mixed in special diet for 10 weeks, vs. Ob-NASH, FIG. 5. The protocol: as §3
To evaluate an effect on the expression of inflammation-related genes and fibrosis-related proteins in liver tissues, the liver tissues obtained from the mouse model were put into RIPA buffer (Cell Signaling) and pulverized with TissueLyser II™ (Quiagen), after which a total protein concentration was quantified with Pierce BCA Protein Assay Kit (Thermo Fisher Scientific) and a protein concentration of Mouse Ccl2 (=Mcp1; R&D Systems, MJE00) and Timp1 (R&D Systems, MTM100) in the liver tissues was quantified by using a commercially available ELISA kit, so that the results thereof are shown in FIG. 5.

For assay [9] the test system is unchanged. As to the kind of experiment: AST and ALT measurement in blood, ob/ob NASH mouse model. The settings on record: 100 mg/kg/day mixed in special diet for 10 weeks, plasma, vs. Ob-NASH, FIG. 4. In kind it is in vivo. On the procedure: as §3
The mouse model with induced non-alcoholic steatohepatitis was subjected to autopsy, after which plasma was separated therefrom, so as to quantify aspartate aminotransferase (AST) and alanine aminotransferase (ALT) by using an automatic blood analyzer (Konelab 20i), and the results thereof are shown in FIG. 4.

The test system is the same in assay [10]. As to the kind of experiment: Expression of genes associated with inflammation and fibrosis in liver tissues (real-time PCR), ob/ob NASH mouse model. The format is in vivo. Particulars: 100 mg/kg/day mixed in special diet for 10 weeks, FIG. 6. On the procedure:
as §3
To measure an expression level of inflammation-related genes and fibrosis-related genes in liver tissues, Trizol® (Invitrogen) was added to the liver tissues collected from the mouse model, after which a total RNA was extracted from the tissues according to the method provided by the manufacturer, and then cDNA was synthesized by using a reverse transcriptase. Then, a real-time polymerase chain reaction was performed in LightCycler®480 Instrument II (RocheLifeScience) equipment by using a reagent of SYBR Green I Master Mix (Roche, 04707516001), and the results thereof are shown in FIG. 6.
(In qPCR the cycle at which signal appears reflects the starting amount.)

Regarding `CCc1cnc(N2CCC(CCCOc3cc(F)c(-c4noc(C(C)C)n4)c(F)c3)CC2)nc1` [compound 1, 3-(4-(3-(1-(5-ethylpyrimidin-2-yl)piperidin-4-yl)propoxy)-2,6-difluorophenyl)-5-isopropyl-1,2,4-oxadiazole], the “worsening of disease by NAFLD activity score (NAS), before vs. after administration” value in assay [1] (C57BL/6J DIO-NASH, disease worsened in 50% of the DIO-NASH group) is reported as “no individual was deteriorated”. Also, the “share of group in which the disease was ameliorated by NAFLD activity score (NAS)” value in assay [1] (C57BL/6J DIO-NASH_Compd1 group) is “about 50%”. In addition, in assay [2], the “fat deposits in liver tissues” value is recorded as “significant decrease” and the “infiltration of inflammatory cells in liver tissues” value is listed as “significant decrease”. For the same compound, in assay [3], the “cross-linking formation in fibers of the liver tissues” value is “remarkable decrease” and the “type I collagen in liver tissues” value was “significant decrease”. Also, in [4], the “IL-1β secretion caused by activation of macrophages” value is listed as “decreased in a concentration-dependent manner”. Further, in assay [5], the “concentration of ALT in blood” value is given as “significantly inhibited increase” and the “concentration of AST in blood” value is on record as “significantly inhibited increase”. Besides, in assay [6], the “expression of fibrosis markers in liver tissues” value is recorded as “remarkable decrease”, the “expression of macrophage markers in liver tissues” value is recorded as “remarkable decrease” and the “expression of monocyte attractants in liver tissues” value is “remarkable decrease”. Further, the “infiltration of inflammatory cells in liver tissues” value in [7] (FIGS. 1 and 2) is recorded as “significantly inhibited”. Besides, the “fibrosis of liver tissues” value in assay [7] (FIGS. 2 and 3) is reported as “significantly inhibited”. The “IL-1β secretion caused by activation of macrophages” value with human monocytes (THP-1) is on record as “decreased in a concentration-dependent manner”. In addition, in assay [8], the “protein level of Ccl2 (=Mcp1) in liver tissues” value is reported as “significantly inhibited” and the “protein level of Timp1 in liver tissues” value was “significantly inhibited”. Also, in assay [9], the “ALT level in blood” value is reported as “significant inhibition of increase” and the “AST level in blood” value was “significant inhibition of increase”. Also, in assay [10], the “increase in expression of fibrosis-related genes (Tgfb1, Col1a, Timp1, Timp2, Acta2) in liver tissues” value is “significantly inhibited” and the “increase in expression of inflammation-related genes (Ccl2, Lgals3, Tnfa) in liver tissues” value was “significantly inhibited”.

These data come from patent US12115159B2, “Pharmaceutical composition for preventing or treating nonalcoholic fatty liver disease, containing GPR119 ligand as active ingredient” (DONG-A ST CO., LTD., priority 2018, dated 2024).
